According to ChEMBL document CHEMBL6103615, “Thymidylate Kinase-Targeted Antimicrobial Peptides via Phage Display: A Novel Strategy against Gram-Negative Bacteria” (J Med Chem, 2025):
Values after ≈ are worked out from the molar mass of the structure shown. Active and inactive are the calls of the source. No cut-off for these calls is given here.

Key:
[1] = Selectivity ratio of MIC for antibacterial activity against Escherichia coli K99 to MIC for antibacterial activity against Escherichia coli K102; type: functional
[2] = Effect on secondary structure of compound in PBS assessed as formation of alpha-helical conformation at 100 uM by CD analysis; type: physicochemical; details: buffer
[3] = Selectivity ratio of MIC for antibacterial activity against Pseudomonas aeruginosa PAO1 to MIC for antibacterial activity against Escherichia coli K97; type: functional
Escherichia coli [4] = assay: Induction of morphological changes in Escherichia coli K88 assessed as membrane folding at 2 uM incubated for 1 hr by SEM analysis; type: functional, organism-based
[5] = Hemolytic activity against human red blood cells at 2 to 128 uM relative to control; type: toxicity, cell-based, Erythrocyte; details: dose 2-128 µM, read-out: Activity
Pseudomonas aeruginosa [6] = assay: Antibacterial activity against Pseudomonas aeruginosa 27853 incubated for 12 to 18 hrs by microbroth dilution method; type: functional; details: time 12-18 hrs
Escherichia coli [7] = assay: Disruption of membrane integrity in Escherichia coli K88 at 2 uM by PI staining based flow cytometry (reference value: 0.1 %); type: functional
[8] = (§1) Binding affinity to 6xHis-tagged recombinant Escherichia coli TMK assessed as dissociation constant by BLI assay
Escherichia coli [9] = assay: as §1
Staphylococcus aureus = assay: Antibacterial activity against methicillin-resistant Staphylococcus aureus 43300 incubated for 12 to 18 hrs by microbroth dilution method; type: functional; details: time 12-18 hrs
Escherichia coli [10] = assay: Antibacterial activity against Escherichia coli K88 infected in ICR mouse model of peritoneal sepsis assessed as reduction in alveolar wall thickening in lungs at 20 mg/kg, ip measured after 10 hrs by H and E staining based analysis; type: functional, organism-based
Escherichia coli [11] = assay: Induction of morphological changes in Escherichia coli K88 assessed as membrane contraction at 2 uM incubated for 1 hr by SEM analysis; type: functional, organism-based
[12] = Toxicity in ICR mouse assessed as change in liver index at 10 to 40 mg/kg, ip treated for 3 days consecutively; type: organism-based; details: in vivo, 72 h, dose 10-40 mg/kg, time 3 day
Escherichia coli [13] = assay: Induction of morphological changes in Escherichia coli K88 assessed as membrane permeability at edges at 2 uM incubated for 1 hr by TEM analysis; type: functional, organism-based
Pseudomonas aeruginosa [14] = assay: Antibacterial activity against Pseudomonas aeruginosa PAO1 incubated for 12 to 18 hrs by microbroth dilution method; type: functional; details: time 12-18 hrs
Escherichia coli [15] = assay: Antibacterial activity against Escherichia coli K88 infected in ICR mouse model of peritoneal sepsis assessed as bacterial load reduction in spleen at 20 mg/kg, ip measured after 10 hrs; type: functional, organism-based
[16] = Selectivity ratio of MIC for antibacterial activity against Salmonella typhimurium 7731 to MIC for antibacterial activity against Escherichia coli K98; type: functional
[17] = Toxicity in ICR mouse assessed as impaired mobility at 40 mg/kg, ip measured for 30 to 4 hrs; type: organism-based; details: in vivo, time 30-4 hrs
Escherichia coli [18] = assay: Antibacterial activity against Escherichia coli 078 incubated for 12 to 18 hrs by microbroth dilution method; type: functional; details: time 12-18 hrs
Escherichia coli [19] = assay: Antibacterial activity against Escherichia coli K88 infected in ICR mouse model of peritoneal sepsis assessed as reduction in blood HMGB1 level at 20 mg/kg, ip measured after 10 hrs; type: functional, organism-based
Escherichia coli [20] = assay: Antibacterial activity against Escherichia coli K99 incubated for 12 to 18 hrs by microbroth dilution method; type: functional; details: time 12-18 hrs
Bacteria [21] = assay: Antibacterial activity against bacterial cells at 100 degreeC at 1 to 64 uM incubated for 60 mins; type: functional, organism-based; details: dose 1-64 µM
[22] = Toxicity in ICR mouse assessed as change in serum ALT level at 10 to 40 mg/kg, ip treated for 3 days consecutively; type: organism-based; details: in vivo, 72 h, dose 10-40 mg/kg, time 3 day
[23] = Selectivity ratio of MIC for antibacterial activity against Escherichia coli 1515 to MIC for antibacterial activity against Escherichia coli K100; type: functional
Escherichia coli [24] = assay: Induction of outer membrane permeability in Escherichia coli K88 assessed as NPN leakage; type: functional, organism-based; details: dose 1-32 µM
Escherichia coli [25] = assay: Antibacterial activity against Escherichia coli K88 infected in ICR mouse model of peritoneal sepsis assessed as bacterial load reduction in kidney at 20 mg/kg, ip measured after 10 hrs; type: functional, organism-based
Escherichia coli [26] = assay: Antibacterial activity against Escherichia coli K88 infected in ICR mouse model of peritoneal sepsis assessed as reduction in vacuolar degeneration of hepatocytes at 20 mg/kg, ip measured after 10 hrs by H and E staining based analysis; type: functional, organism-based
Escherichia coli [27] = assay: Antibacterial activity against Escherichia coli K88 infected in ICR mouse model of peritoneal sepsis assessed as reduction in blood IL-6 level at 20 mg/kg, ip measured after 10 hrs; type: functional, organism-based
Bacteria [28] = assay: Antibacterial activity against bacterial cells at pH 4 to 10; type: functional
Escherichia coli [29] = assay: Induction of cytoplasmic membrane depolarization in Escherichia coli K88 at 2 uM by DiSC3-5 dye based analysis; type: functional, organism-based
Escherichia coli [30] = assay: Antibacterial activity against Escherichia coli K88 infected in ICR mouse model of peritoneal sepsis assessed as reduction in granulocyte infiltration in spleen at 20 mg/kg, ip measured after 10 hrs by H and E staining based analysis; type: functional, organism-based
[31] = Toxicity in ICR mouse assessed as body weight change at 10 to 40 mg/kg, ip treated for 3 days consecutively; type: organism-based; details: in vivo, 72 h, dose 10-40 mg/kg, time 3 day
Escherichia coli [32] = assay: Antibacterial activity against Escherichia coli K88 infected in ICR mouse model of peritoneal sepsis assessed as reduction in granulocyte infiltration in lungs at 20 mg/kg, ip measured after 10 hrs by H and E staining based analysis; type: functional, organism-based
Bacteria [33] = assay: Antibacterial activity against bacterial cells at 1 to 128 uM in presence of CaCl; type: functional, organism-based; details: dose 1-128 µM
[34] = Selectivity ratio of MIC for antibacterial activity against Pseudomonas aeruginosa 27853 to MIC for antibacterial activity against Escherichia coli K96; type: functional
Escherichia coli [35] = assay: Induction of morphological changes in Escherichia coli K88 assessed as cytoplasmic leakage at 2 uM incubated for 1 hr by TEM analysis; type: functional, organism-based
[36] = Toxicity in ICR mouse assessed as change in spleen index at 10 to 40 mg/kg, ip treated for 3 days consecutively; type: organism-based; details: in vivo, 72 h, dose 10-40 mg/kg, time 3 day
Bacteria [37] = assay: Antibacterial activity against bacterial cells at 1 to 64 uM incubated for 4 hrs in presence of 50 percent serum; type: functional, organism-based; details: dose 1-64 µM

CC[C@@H](C)[C@H](NC(=O)CNC(=O)[C@@H]1CCCN1C(=O)[C@H](CCCCN)NC(=O)[C@H](Cc1c[nH]c2ccccc12)NC(=O)[C@@H](NC(=O)[C@H](CCCCN)NC(=O)[C@H](CCCCN)NC(=O)[C@H](Cc1c[nH]c2ccccc12)NC(=O)[C@H](Cc1ccc(O)cc1)NC(=O)[C@H](CCCCN)NC(=O)[C@@H](NC(=O)[C@H](CC(C)C)NC(=O)[C@H](CC(N)=O)NC(=O)CNC(=O)[C@@H](N)CO)[C@@H](C)O)[C@@H](C)CC)C(=O)N[C@@H](CCCCN)C(=O)N[C@@H](CCCCN)C(=O)N[C@@H](Cc1c[nH]c2ccccc12)C(=O)N[C@H](C(=O)N[C@@H](CCCCN)C(=O)O)[C@H](C)CC
Ratio [1]: >2
Activity [2]: Active
Ratio [3]: >2
Activity (Escherichia coli [4]): Active
hemolysis at up to 128 µM [5]: < 5%
MIC (Pseudomonas aeruginosa [6]): 8 µM (≈ 20.8 µg/mL)
Activity (Escherichia coli [7]): 96.8%
Kd [8]: 4.72 µM
Activity (Escherichia coli [9]): Dose-dependent-effect
MIC (Staphylococcus aureus): 128 µM (≈ 333 µg/mL)
Activity (Escherichia coli [10]): Active
Activity (Escherichia coli [11]): Active
Activity [12]: Non-toxic
Activity (Escherichia coli [13]): Active
MIC (Pseudomonas aeruginosa [14]): 4 µM (≈ 10.4 µg/mL)
Activity (Escherichia coli [15]): Active; Activity Comparable To Colistin Treatment
Ratio [16]: >2
Activity [17]: Toxic
MIC (Escherichia coli [18]): 8 µM (≈ 20.8 µg/mL)
Activity (Escherichia coli [19]): Active
MIC (Escherichia coli [20]): 4 µM (≈ 10.4 µg/mL)
Activity (Bacteria [21]): Active
Activity [22]: Non-toxic
Ratio [23]: >2
Activity (Escherichia coli [24]): Dose-dependent-effect
Activity (Escherichia coli [25]): Active; Activity Comparable To Colistin Treatment
Activity (Escherichia coli [26]): Active
Activity (Escherichia coli [27]): Active
MIC (Bacteria [28]): 2 µM (≈ 5.21 µg/mL)
Activity (Escherichia coli [29]): Active
Activity (Escherichia coli [30]): Active
Activity [31]: Non-toxic
Activity (Escherichia coli [32]): Active
Activity (Bacteria [33]): inactive
Ratio [34]: >2
Activity (Escherichia coli [35]): Active
Activity [36]: Non-toxic
Activity (Bacteria [37]): Active
